Peptide text beside a SMILES is read from it. * marks the point of attachment. Cbz = O=C(OCc1ccccc1)*
Tests used:
[1] = biological target: T1, FKBP L106P-YFP fusion protein (Homo sapiens, UniProt P62942, F37V); assay: Shield1 dose-response stabilization of FKBP-YFP fusion, flow cytometry; assay type: cell-based
T1 construct: expressed in transfected cells
Description: (§1) The data for FIGS. 2A-2D are presented as the average mean fluorescence intensity (MFI)±SEM relative to that of the maximum fluorescence intensity observed for the individual mutant. Experiments were performed in triplicate. (FIG. 2A) Fluorescence of FKBP-YFP fusion proteins expressed in NIH3T3 cells as determined by flow cytometry in the absence of Shield1. (FIG. 2B) NIH3T3 cells stably expressing FKBP-YFP fusion proteins were treated with three-fold dilutions of Shield1 (1 μM to 0.1 nM) and the fluorescence was monitored by flow cytometry. (FIG. 2C) NIH3T3 cells stably expressing FKBP-YFP fusion proteins were either mock-treated (circles) or treated with 30 nM Shield1 (squares), 100 nM Shield1 (diamonds), 300 nM Shield1 (crosses), or 1 μM Shield1 (triangles). Fluorescence was monitored over time using flow cytometry. MFI was normalized to 100% of cells treated with 1 μM Shield1 at 24 hrs. (FIG. 2D) NIH3T3 cells stably expressing FKBP-YFP fusion proteins were treated with 1 μM Shield1 for 24 hours at which point the cells were washed with media to remove Shield1, and the decrease in fluorescence was monitored using flow cytometry.
(§2) Twenty-four hours prior to analysis, transduced NIH3T3 cells were plated at 1×10^5 cells per well of a 12-well plate and treated as described. Cells were removed from the plate using PBS+2 mM EDTA, washed once with PBS, and resuspended in 200 μl PBS. Cells were analyzed at the Stanford Shared FACS Facility using FlasherII with 10,000 events represented.
(§3) Each variant FKBP-derived, ligand-responsive destabilizing domain was separately transduced into NIH3T3 cells, and YFP fluorescence levels were measured in the absence of Shield1 (FIG. 2A). […] The most destabilizing variation, L106P, produced YFP fluorescence at a level of only 1-2% relative to the positive control. All FKBP-derived, ligand-responsive destabilizing domain variants produced increased fluorescence signal when incubated in the presence of Shield1 ([…]). […]

[2] = biological target: T2, FKBP V24A-YFP fusion protein (Homo sapiens, UniProt P62942, F37V/V25A); assay: as above; assay type: cell-based; settings: NIH3T3 cells stably expressing V24A FKBP-YFP; extracellular Shield1 giving 50% of maximum YFP signal; read-out: EC50 of stabilization (rescue) by Shield1
T2 construct: expressed in transfected cells; host or cells: NIH3T3 (retroviral transduction)
Description: as §1, §2, §3

[3] = biological target: T3, FKBP-YFP fusion proteins (Homo sapiens, UniProt P62942, F37V); assay: Kinetics of FKBP-YFP fluorescence upon addition of Shield1; assay type: cell-based; settings: NIH3T3 cells transduced with L106P-YFP
T3 construct: expressed in transfected cells
Description: as §1
(§4) FIG. 8 is a graph showing the kinetics of FKBP-YFP fluorescence in cells upon addition of Shield1. NIH3T3 cells stably expressing the indicated FKBP-YFP fusions were treated with 1 μM Shield1, and increases in fluorescence were monitored over time using flow cytometry. Data are presented as the average mean fluorescence intensity (MFI)±SEM relative to that of the maximum fluorescence intensity observed for the individual variant. The experiment was performed in triplicate, and MFI was normalized to 100% at 24 hr.
(§5) In a kinetic study of NIH3T3 cells stably expressing each of the five FKBP-derived, ligand-responsive destabilizing domain variants, YFP fluorescence increased at approximately the same rate upon addition of Shield1, with maximum fluorescence achieved at 24 hours and stably maintained for at least an additional 48 hours without further addition of Shield1 (FIG. 2C). […]

[4] = tested on: FKBP-YFP fusion proteins; assay: as above; assay type: cell-based, human; settings: NIH3T3 cells stably expressing FKBP-YFP variants
Description: as §1, §4, §5

[5] = tested on: falcipain-2 fused to the F36V/L106P FKBP mutant; assay: Conditional falcipain stabilization, swollen vacuole phenotype; assay type: cell-based, Plasmodium falciparum
From the text: In a related experiment, fusion proteins were made with falcipain-2, a cysteine protease. Knocking out the falcipain-2 gene causes vacuole swelling resulting from the decreased ability of the organisms to degrade hemoglobin. Fusion of falcipain-2 to the F36V/L106P FKBP mutant produced a conditional falcipain stabilization system.

[6] = tested on: YFP fusion protein; assay: Immunoblot of YFP fusion protein in transfected Plasmodium; assay type: cell-based, Plasmodium falciparum
[7] = tested on: FKBP-derived stability-affecting domain fused to the N-terminus of YFP; assay: Time lapse fluorescence microscopy of parasitophorous vacuoles in infected HFF cells; assay type: cell-based, Toxoplasma gondii; settings: T. gondii in HFF cells
From the text: The fluorescence of parasitophorous vacuoles in infected cells was monitored by time lapse microscopy following addition (FIG. 6B) or removal of ligand (FIG. 6C). Background fluorescence is indicated.
Nucleotides expressing the fusion the fusion protein were introduced into T. gondii parasites, which were then used to infect HFF cells. The parasitophorous vacuoles in the infected cells were monitored by time lapse fluorescence microscopy following the addition of ligand (Shield1; FIG. 6B) or following the removal of ligand (FIG. 6C). The indicated control line corresponds to background fluorescence, while each of the other lines in the graphs correspond to individual infected cells.

[8] = tested on: luciferase fused to FKBP-derived stability-affecting protein (F36V/L106P); assay: Bioluminescence imaging of mice challenged with HCT116 tumor cells expressing luciferase-FKBP fusion; assay type: in vivo, SCID mice
From the text: FIGS. 7A and 7B are graphs showing the results of an experiments in which SCID mice were challenged with tumor cells genetically manipulated to express luciferase fused to a stability-affecting protein.
HCT116 cancer cells were transfected with a nucleic acids encoding the reporter gene luciferase fused to an FKBP-derived stability-affecting protein (F36V/L106P) mutant. Stable transformants were then selected and used to challenge SCID mice.
The results of an experiments in which SCID were challenged with tumor cells harboring nucleic acids encoding luciferase fused to an FKBP-derived, stability-affecting protein (F36V/L106P) are shown in FIGS. 7A and 7B. The mice were either untreated or treated with the indicated amounts of ligand (Shield1) and bioluminescent signals were imaged over time as described (Lin, A. H., et al. (2005) J. Immunol. 175:547-54; Luo, J., et al. (2006) Proc. Nat'l. Acad. Sci. USA 103:18326-31; n=4-10 mice per treatment group).

[9] = tested on: L106P-RhoA, L106P-Cdc42, Arl7-L106P in NIH3T3 cells; assay: Ligand-dependent control of cell morphology by GTPase fusions, confocal microscopy; assay type: cell-based; settings: Shield1-treated, mock-treated or Shield1 removed
Description: NIH3T3 cells stably expressing constitutively active GTPases fused to destabilizing domains were treated with 1 μM Shield1 for 24 hr. At this time, cells were washed once with PBS, plated at 8×10^3 cells in 4-well LabTek Chambered coverglass (NUNC) coated with 1 mg/ml poly-D-lysine (Sigma), along with mock-treated transduced cells and transduced cells treated with 1 μM Shield1. Cells were cultured for 24 hr in 10% DBS, then cultured in serum-free media for 12 hr. Cells were then washed with PBS, fixed in 4% paraformaldehyde for 15 min, permeabilized in 0.2% Triton X-100 for 5 min, stained with 1 μg/ml Alexa Fluor 488-conjugated phalloidin (Invitrogen; A12379) in PBS for 20 min, and washed with PBS. Fixed cells were imaged using a Bio-Rad Radiance 2100 confocal microscope.
Expression of constitutively active small GTPases causes well-characterized changes in cellular morphology (Heo and Meyer, 2003). To determine if FKBP-derived destabilizing domains, in combination with Shield1, could affect cell morphology by modulating GTPases levels, several small GTPases (i.e., RhoA, Cdc42, or Arl7) were fused to the destabilizing domains (FIGS. 4A and 4B). NIH3T3 cells were individually transduced with the L106P-RhoA, L106P-Cdc42, or Arl7-L106P (note arrangement of fusions), and then mock-treated or treated with Shield1, and visualized using confocal microscopy (not shown). […]

[10] = tested on: FKBP variant fusions to proteins of interest in NIH3T3 cells; assay: Immunoblot of proteins of interest fused to FKBP destabilizing domains, mock or 1 μM Shield1; assay type: cell-based
Description: (FIG. 4A) FKBP variants F15S and L106P were fused to the N-termini of several different proteins and transduced into NIH3T3 cells. Cell populations stably expressing the fusions were then either mock-treated or treated with 1 μM Shield1, and cell lysates were subjected to immunoblot analysis using antibodies specific for the protein of interest. Endogenous proteins served as loading controls (when detected) and Hsp90 served as a loading control otherwise. (FIG. 4B) FKBP variants D100G and L106P were fused to the C-termini of several different proteins of interest and treated as above.
An additional example is CD8α, a transmembrane glycoprotein found on the surface of T cells, which was able to be detected on the surface of cells by flow cytometry (FIG. 5), in a Shield1-dependent manner. […] Here, NIH3T3 cells stably expressing the fusion proteins were divided into three pools (groups). The first group (−) was mock-treated, the second group (+) was treated with 1 μM Shield1 for 24 hrs, and the third group (+/−) was treated with 1 μM Shield1 for 24 hrs, and then washed with media and cultured for 24 hr in the absence of Shield1. Live cells were then probed with a FITC-conjugated anti-CD8α antibody and assayed by flow cytometry. Data are presented as the average mean fluorescence intensity±SEM from an experiment performed in triplicate.

[11] = biological target: FKBP F36V variant (Homo sapiens, UniProt P62942, F37V); settings: Clackson et al. 1998; cited from earlier work
[12] = tested on: proteasome; assay: Immunoblot of F15S-YFP and L106P-YFP after Shield1 withdrawal with proteasome inhibitors; assay type: cell-based; settings: 10 μM, 4 hrs, F15S-YFP and L106P-YFP in NIH3T3
Description: Immunoblot analysis was performed using an anti-YFP antibody.
The mechanism of degradation was examined for the F15S and L106P variants. Since the ubiquitin-proteasome system is a major mediator of intracellular protein degradation (Pickart, 2004), the cells expressing either the FKBP-derived, ligand-responsive destabilizing domain variants F15S or L106P were incubated with MG132 (FIG. 2F) or lactacystin (FIG. 9), which inhibit ubiquitin-proteasome-mediated protein degradation.

Sequence of luciferase fused to FKBP-derived stability-affecting protein (F36V/L106P) (P62942 with tags, fused parts or gaps F37V limits assumed): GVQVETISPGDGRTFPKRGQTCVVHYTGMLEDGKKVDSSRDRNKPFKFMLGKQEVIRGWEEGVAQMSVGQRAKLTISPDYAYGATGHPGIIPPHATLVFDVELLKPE
T1 sequence (P62942 with tags, fused parts or gaps F37V): as the sequence (P62942 with tags, fused parts or gaps F37V limits assumed) above
T2 sequence (P62942 2-108 V25A/F37V): as the sequence (P62942 with tags, fused parts or gaps F37V limits assumed) above, with V24A, P106L counted along it
Sequence of FKBP F36V variant (P62942 2-108 F37V limits assumed): as the sequence (P62942 with tags, fused parts or gaps F37V limits assumed) above, with P106L counted along it
Sequence of falcipain-2 fused to the F36V/L106P FKBP mutant (P62942 with tags, fused parts or gaps F37V limits assumed): as the sequence (P62942 with tags, fused parts or gaps F37V limits assumed) above
T3 sequence (P62942 with tags, fused parts or gaps F37V): as the sequence (P62942 with tags, fused parts or gaps F37V limits assumed) above

Compound | L106P-YFP stabilization upon addition of Shield1 ([1]; 1 μM Shield1) | EC50 ([1]; NIH3T3 cells stably expressing L106P FKBP-YFP) | EC50 [2] | time within which YFP expression is observed after Shield1 treatment [3] | additional time maximum fluorescence is stably maintained without further addition of Shield1 [4] | time at which maximum fluorescence is achieved after addition of Shield1 [4] | organisms with swollen vacuole phenotype, presence of ligand compared to absence [5] | levels of YFP fusion protein in the presence of ligand [6] | levels of YFP on addition / removal of ligand [7] | effect of repeated administration of the ligand ([8]; 10 mg/kg Shield1 every 48 hours) | time of peak luminescence following a single injection of ligand ([8]; SCID mice, HCT116 luciferase-FKBP F36V/L106P tumors) | dependence of luminescence on ligand dose ([8]; SCID mice, single injection) | percentage of cells displaying the predicted morphology (penetrance) [9] | Shield1-dependent stability of fusion proteins [10] | binding to F36V variant compared to wild-type FKBP [11] | effect on degradation of variant FKBP fusion proteins following withdrawal of Shield1 [12]
1-[2-(3,4,5-trimethoxy-phenyl)-butyryl]-piperazine-2-carboxylic acid 3-(3,4-dimethoxy-phenyl)-1-[3-(2-morpholin-4-yl-ethoxy)-phenyl]-propyl ester [Shield1] | fully stabilized | ~100 nM | ~5 nM | ≤ 15 min | ≥ 48 h | 24 h | More than 5 times | greatly increased | levels of YFP increase in the presence of ligand and decrease in the absence of ligand | continued luciferase stabilization | about 10 hours | dependent on ligand dose | > 90% | Shield1-dependent stability | about 1,000 fold | 
CC(C)C[C@@H](C=O)NC(=O)[C@H](CC(C)C)NC(=O)[C@H](CC(C)C)NC(=O)OCc1ccccc1 [MG132] (Cbz-Leu-Leu-Leu-aldehyde) |  |  |  |  |  |  |  |  |  |  |  |  |  |  |  | inhibited degradation
CC(=O)N[C@@H](CSC(=O)[C@]1([C@@H](O)C(C)C)NC(=O)[C@H](C)[C@@H]1O)C(=O)O [lactacystin] |  |  |  |  |  |  |  |  |  |  |  |  |  |  |  | inhibited degradation

— patent publication US9487787B2, “Method for regulating protein function in cells using synthetic small molecules” (The Board of Trustees of the Leland Stanford Junior …, priority 2007, dated 2016)
